# In patent US20050043292A1, “Fluorinated lysine derivatives as dipeptidyl peptidase IV inhibitors” (Pfizer Inc, priority 2003, published 2005):
# Structures can show the parent of a compound that is named as a salt.
# Target: T1, DPP-IV (Homo sapiens, UniProt P27487)
# T1 construct: purchased Enzyme Systems Products SPE-01
# Experiment: In vitro Assay for Dipeptidyl Peptidase Inhibition
# Format: biochemical
# Settings: in vitro activity, Gly-Pro-4-methoxy-β-naphthylamide substrate, overnight at 37° C., read-out: IC50 (concentration of test compound required for 50% inhibition)
# Experimental: 150 μL of an enzyme-substrate solution is pipetted into microtiter wells of a polystyrene 96-well plate, and maintained at 4° C. The enzyme-substrate solution comprises 50 μM Gly-Pro4-methoxy B naphthylamide HCl in 50 mM Tris assay buffer pH 7.3 containing 0.1M sodium chloride, 0.1% (v/v) Triton and 50 μU/mL DPP-IV (Enzyme Systems Products Cat#SPE-01, DPP-IV 5 mU/mL stock). 5μL/well of compounds of Formula I are added, bringing the final compound of Formula I concentrations to 3 μM-10 nM per well.
# Controls. Enzyme is omitted from four (4) wells, as a reagent blank. 5 μL of 3 mM Diprotin A is added to four wells as a positive quality control, providing a final Diprotin A concentration of 100 μM. To measure total enzyme activity (i.e. a negative control), without the influence of any compounds of Formula I, 5 μL of distilled water is added to four wells.
# The entire assay is incubated overnight (about 14-18 hours) at 37° C.
# T1 sequence (P27487 whole entry, species assumed): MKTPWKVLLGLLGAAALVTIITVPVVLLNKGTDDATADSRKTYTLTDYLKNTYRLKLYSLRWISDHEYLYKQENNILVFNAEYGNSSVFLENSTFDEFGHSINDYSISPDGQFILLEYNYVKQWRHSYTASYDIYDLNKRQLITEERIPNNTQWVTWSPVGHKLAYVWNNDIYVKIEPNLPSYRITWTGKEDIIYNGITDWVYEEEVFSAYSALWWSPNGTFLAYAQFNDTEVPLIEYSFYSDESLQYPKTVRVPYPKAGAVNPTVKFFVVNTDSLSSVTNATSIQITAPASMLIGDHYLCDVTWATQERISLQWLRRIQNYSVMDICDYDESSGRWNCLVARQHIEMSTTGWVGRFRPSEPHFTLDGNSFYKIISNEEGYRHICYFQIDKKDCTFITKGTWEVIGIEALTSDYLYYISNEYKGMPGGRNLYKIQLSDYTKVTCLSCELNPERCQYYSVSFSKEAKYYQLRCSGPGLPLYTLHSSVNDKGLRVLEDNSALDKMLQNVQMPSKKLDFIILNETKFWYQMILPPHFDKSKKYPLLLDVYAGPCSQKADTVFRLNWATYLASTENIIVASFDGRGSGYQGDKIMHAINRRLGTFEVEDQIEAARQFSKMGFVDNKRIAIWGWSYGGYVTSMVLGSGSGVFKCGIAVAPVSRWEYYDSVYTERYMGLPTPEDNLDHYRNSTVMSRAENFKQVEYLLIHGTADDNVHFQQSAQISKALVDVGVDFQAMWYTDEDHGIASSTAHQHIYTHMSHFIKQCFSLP
smiles,measurement,value
"N[C@@H](CCCCNC(=O)COc1ccccc1)C(=O)N1CC(F)(F)C(F)(F)C1 [Example 6, (S)-N-[5-Amino-6-oxo-6-(3,3,4,4-tetrafluoro-pyrrolidin-1-yl)-hexyl]-2-phenoxy-acetamide Hydrochloride]",IC50,~1400 nM
